Where two headings read alike, the source gives them in different places.
What was measured:
[1] = biological target: Full length wild-type cereblon CRBN (Homo sapiens (Human), UniProt Q96SW2); assay: fluorescence polarization (FP) assay, cereblon binding
Excerpt: Compound activity was monitored in a fluorescence polarization (FP) homogeneous assay using 1-[5-({2-[2-(2-{[2-(2,6-dioxopiperidin-3-yl)-1,3-dioxo-2,3-dihydro-1H-isoindol-4-yl]oxy}acetamido)ethoxy]ethyl}carbamoyl)pentyl]-3,3-dimethyl-2-[(1E,3E)-5-[(2E)-1,3,3-trimethyl-5-sulfo-2,3-dihydro-1H-indol-2-ylidene]penta-1,3-dien-1-yl]-3H-indol-1-ium-5-sulfonate as a fluorescent probe. Unless otherwise stated, all reagents were purchased from Sigma Aldrich. […] Full length wild-type cereblon CRBN (80.0 nM, 10 μL) was incubated in assay buffer containing 20 mM HEPES (pH 8.0), […], 0.5 mM TCEP and 0.05% Tween 20 in the presence or absence of compound (300 nL). Inhibitors were stored as 10 mM DMSO stocks in an inert environment (low humidity, dark, low oxygen, room temperature) using the Storage Pod System. […] Following incubation at room temperature for 30 min, the assay was initiated by dispensing the probe to a final concentration of 5 nM (2.5 nL of a 20 μM stock) using the Echo ESXX. […] The FP signal was subsequently normalized to the no-compound control (i.e., DMSO). Analysis and IC50 values were derived using Dotmatics (Dotmatics UK) software.

GSPT1 = GSPT1 (Homo sapiens (Human), UniProt P15170+Q96SW2); assay: immunofluorescence assay for GSPT1 degradation in CAL-51 cells (Example 4); assay type: cell-based
Description: The representative compounds were tested in an immunofluorescence assay for their activity to bind to degrade GSPT1. CAL-51 cells were purchased from DSMZ (cat. Number ACC302), sub-cultured in 90% Dulbecco's MEM (4.5 g/L glucose, Gibco 11965) +10% heat inactivated FBS (BioConcept, 2-01F136I) and incubated at 37° C., 5% CO2. For the assay, imaging microtiterplate Cell Carrier 96 Ultra (Perkin Elmer 6055302) were pre-coated with Fibronectin (Sigma F085, 30 μl at 0.2 μg/ml) in PBS (100 μl, Gibco 14190) for 45 min at room temperature, rinsed with PBS and CAL-51 cells (30 K cells/well) were plated and let to adhere overnight. Cells were treated with compounds typically using a serial dilution ranging from 30 μM to 0.1 nM for 6 hours. Compounds were stored at 10 mM DMSO stocks. Vehicle (DMSO), positive (CC-885, 10 μM) and rescue controls (positive control plus 0.2 μM bortezomib) were also included atthis stage. Cells were subsequently rinsed with PBS and fixed in 10% Formalin solution (50 μl, Sigma HT5011)) for 20 mins at room temperature. Following three consecutive PBS washes (100 μl), cells were permeabilized in 0.1% Triton X-100 in PBS (Sigma 93443, 50 μl) for 15 mins at room temperature. Following three further PBS washes, 50 μl blocking buffer (1% BSA, Sigma A4503, in PBS) was added for 45 min for signal-to-noise reduction.
Primary antibody (human GSPT1, Sigma HPA052488) was diluted in blocking buffer (dil.1/300, 35 μl/well) and incubated with the cells overnight at 4° C. After three PBS washes, Alexa-fluor 488 coupled secondary antibodies (Invitrogen, A32731, dil.1/1000), Alexa-fluor 647-Phalloidin (Invitrogen, A22287, dil.1/200) and DAPI (Thermo, #62248, dil.1/1000) were diluted in blocking buffer and incubated with the samples for 2 hours at room temperature. After three final PBS washes, samples were conserved in 100 μl PBS in the dark, until measurement. Image acquisition was performed on the Operetta High-Content Imager (Perkin-Elmer). Fluorescence intensity of Alexa-Fluor 488 (GSPT1), Alexa-Fluor 647 (Actin) and DAPI (Nucleus) were measured. For the determination of GSPT1 DC50 values, a custom algorithm implemented in the PerkinElmer image analysis software Harmony-Acapella® was developed. After user-defined setting of adjustment parameters, the analysis was run identically without human intervention for all image fields. DAPI staining of the nuclei was used to determine the location of cells using standard nuclei detection modules. Segmentation artifacts were removed by threshold-based filters for area, roundness and intensity. The outline of the cells was determined analogously from the sum of the normalized, smoothed DAPI and Actin channel, starting from each nucleus. The Alexa-Fluor 488 (GSPT1) signal intensity in each cell was finally measured, in order to obtain a Mean intensity per cell. GSPT1 degradation (DC50) was calculated after normalization to controls and data import in CDD vault Database, using non-linear regression.

[2] = 6 hours, read-out: Activity for GSPT1 degradation, Code (DC50)
[3] = GSPT1 degradation, read-out: DC50 value

Sequence of GSPT1 (P15170 whole entry): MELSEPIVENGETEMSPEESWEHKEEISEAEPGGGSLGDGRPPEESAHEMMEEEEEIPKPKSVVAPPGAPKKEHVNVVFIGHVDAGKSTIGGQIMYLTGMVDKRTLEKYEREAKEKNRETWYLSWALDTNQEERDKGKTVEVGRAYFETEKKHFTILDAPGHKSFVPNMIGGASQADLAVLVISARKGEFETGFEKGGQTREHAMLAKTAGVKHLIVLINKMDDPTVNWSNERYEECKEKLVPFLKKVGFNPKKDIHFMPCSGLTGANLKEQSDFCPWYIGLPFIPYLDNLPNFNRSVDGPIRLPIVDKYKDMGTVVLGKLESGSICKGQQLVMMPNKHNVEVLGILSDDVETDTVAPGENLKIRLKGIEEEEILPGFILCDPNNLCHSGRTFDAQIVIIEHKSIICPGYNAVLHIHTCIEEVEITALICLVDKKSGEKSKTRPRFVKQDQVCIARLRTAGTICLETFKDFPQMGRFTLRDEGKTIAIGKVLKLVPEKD
Sequence of GSPT1 (Q96SW2 whole entry): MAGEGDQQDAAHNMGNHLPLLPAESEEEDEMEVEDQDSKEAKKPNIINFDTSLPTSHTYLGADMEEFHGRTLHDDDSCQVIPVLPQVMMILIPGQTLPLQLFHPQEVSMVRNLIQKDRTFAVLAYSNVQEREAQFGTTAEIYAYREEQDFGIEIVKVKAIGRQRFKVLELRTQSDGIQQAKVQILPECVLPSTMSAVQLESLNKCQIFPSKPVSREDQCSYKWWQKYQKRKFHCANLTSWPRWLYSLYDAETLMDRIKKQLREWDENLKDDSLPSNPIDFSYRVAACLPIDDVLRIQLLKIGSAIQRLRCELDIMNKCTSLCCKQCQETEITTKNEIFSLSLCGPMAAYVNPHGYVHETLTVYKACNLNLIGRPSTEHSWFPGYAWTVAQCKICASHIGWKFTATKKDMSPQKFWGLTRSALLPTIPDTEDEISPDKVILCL
Sequence of GSPT1 (Q16531 2-1140 partner): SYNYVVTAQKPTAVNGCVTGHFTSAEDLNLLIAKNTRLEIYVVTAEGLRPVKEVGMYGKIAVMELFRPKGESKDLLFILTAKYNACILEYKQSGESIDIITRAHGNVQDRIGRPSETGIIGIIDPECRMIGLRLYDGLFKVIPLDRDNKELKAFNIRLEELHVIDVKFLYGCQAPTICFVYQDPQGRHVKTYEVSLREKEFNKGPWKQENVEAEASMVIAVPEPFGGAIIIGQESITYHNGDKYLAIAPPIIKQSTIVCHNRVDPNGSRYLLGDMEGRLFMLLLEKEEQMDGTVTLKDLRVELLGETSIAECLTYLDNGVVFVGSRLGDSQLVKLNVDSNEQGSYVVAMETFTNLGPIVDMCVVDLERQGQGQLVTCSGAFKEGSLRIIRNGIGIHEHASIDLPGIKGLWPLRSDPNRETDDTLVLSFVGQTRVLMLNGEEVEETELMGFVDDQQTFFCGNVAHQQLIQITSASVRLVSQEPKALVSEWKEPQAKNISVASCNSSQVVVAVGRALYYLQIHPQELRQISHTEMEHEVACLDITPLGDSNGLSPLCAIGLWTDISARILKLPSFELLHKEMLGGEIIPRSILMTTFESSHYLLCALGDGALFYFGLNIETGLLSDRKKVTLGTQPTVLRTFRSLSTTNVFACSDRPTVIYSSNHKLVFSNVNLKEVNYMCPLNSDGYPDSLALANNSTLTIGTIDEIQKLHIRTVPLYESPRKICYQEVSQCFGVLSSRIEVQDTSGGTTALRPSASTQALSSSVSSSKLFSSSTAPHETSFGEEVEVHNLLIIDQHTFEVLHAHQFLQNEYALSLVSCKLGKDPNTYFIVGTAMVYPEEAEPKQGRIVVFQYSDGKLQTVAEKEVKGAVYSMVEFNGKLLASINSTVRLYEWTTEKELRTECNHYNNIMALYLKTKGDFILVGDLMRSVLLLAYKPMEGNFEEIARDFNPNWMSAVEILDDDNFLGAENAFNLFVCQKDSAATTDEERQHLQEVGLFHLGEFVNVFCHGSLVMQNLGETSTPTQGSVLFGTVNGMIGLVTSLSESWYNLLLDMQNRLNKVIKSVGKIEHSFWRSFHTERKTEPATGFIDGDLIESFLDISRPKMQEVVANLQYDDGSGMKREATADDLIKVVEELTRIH
Sequence of Full length wild-type cereblon CRBN (Q96SW2 whole entry): as the sequence (Q96SW2 whole entry) above

Compound	DC50 (GSPT1; [2]) [nM]	also measured
O=C1CCC(N2Cc3ccc(COC(=O)Nc4ccc5c(c4)CCO5)cc3C2=O)C(=O)N1 (centres unmarked) [Compound 66]	30 to 300	IC50 ([1]; read-out: rFP IC50): < 500 nM
Cc1ccccc1-c1ccc(NC(=O)OCc2ccc3c(c2)C(=O)N(C2CCC(=O)NC2=O)C3)cn1 (centres unmarked) [Compound 86]	< 30	IC50 ([1]; read-out: IC50 value): < 1100 nM; DC50 (GSPT1; [3]): ≤ 30 nM
O=C1CCC(N2Cc3ccc(COC(=O)NC4CCCCC4)cc3C2=O)C(=O)N1 (centres unmarked) [Compound 28]	> 300	–
CC(C)(C)c1cccc(NC(=O)OCc2ccc3c(c2)C(=O)N(C2CCC(=O)NC2=O)C3)c1 (centres unmarked) [Compound 153, (2-(2,6-dioxopiperidin-3-yl)-3-oxoisoindolin-5-yl)methyl (3-(tert-butyl)phenyl)carbamate]	< 30	DC50 (GSPT1; [3]): ≤ 30 nM
O=C1CCC(N2Cc3ccc(COC(=O)Nc4cc(C(F)(F)F)ns4)cc3C2=O)C(=O)N1 (centres unmarked) [Compound 139]	30 to 300	–
CC(C)(C)C12CC(NC(=O)OCc3ccc4c(c3)C(=O)N(C3CCC(=O)NC3=O)C4)(C1)C2 (centres unmarked) [Compound 120, (2-(2,6-dioxopiperidin-3-yl)-3-oxoisoindolin-5-yl)methyl (3-(tert-butyl)bicyclo[1.1.1]pentan-1-yl)carbamate]	30 to 300	–
Cc1cc(C)c(NC(=O)OCc2ccc3c(c2)C(=O)N(C2CCC(=O)NC2=O)C3)cc1Cl (centres unmarked) [Compound 123, (2-(2,6-dioxopiperidin-3-yl)-3-oxoisoindolin-5-yl) methyl (5-chloro-2,4-dimethylphenyl)carbamate]	> 300	–
O=C1CCC(N2Cc3ccc(COC(=O)Nc4cc(Cl)cc(OC5CCNC5)c4)cc3C2=O)C(=O)N1 (centres unmarked) [Compound 20]	> 300	–
O=C1CCC(N2Cc3ccc(COC(=O)Nc4cccc(OC(F)F)c4)cc3C2=O)C(=O)N1 (centres unmarked) [Compound 5]	< 30	DC50 (GSPT1; [3]): ≤ 30 nM
O=C1CCC(N2Cc3ccc(COC(=O)Nc4ccc5c(c4)CCC5)cc3C2=O)C(=O)N1 (centres unmarked) [Compound 56]	30 to 300	–
O=C1CCC(N2Cc3ccc(COC(=O)Nc4ccc(C5(F)CC5)nc4)cc3C2=O)C(=O)N1 (centres unmarked) [Compound 109, (2-(2,6-dioxopiperidin-3-yl)-3-oxoisoindolin-5-yl)methyl (6-(1-fluorocyclopropyl)pyridin-3-yl)carbamate]	< 30	DC50 (GSPT1; [3]): ≤ 30 nM
O=C1CCC(N2Cc3ccc(COC(=O)Nc4cc(F)c(F)c(Cl)c4)cc3C2=O)C(=O)N1 (centres unmarked) [Compound 132]	30 to 300	–
COc1ccc(Cl)cc1NC(=O)OCc1ccc2c(c1)C(=O)N(C1CCC(=O)NC1=O)C2 (centres unmarked) [Compound 14]	> 300	–
O=C1CCC(N2Cc3ccc(COC(=O)Nc4cc(OC(F)(F)F)ccc4F)cc3C2=O)C(=O)N1 (centres unmarked) [Compound 145, (2-(2,6-dioxopiperidin-3-yl)-3-oxoisoindolin-5-yl)methyl(2-fluoro-5-(trifluoromethoxy)phenyl)carbamate]	30 to 300	–
O=C1CCC(N2Cc3ccc(COC(=O)Nc4ccc(F)c(Cl)c4)cc3C2=O)C(=O)N1 (centres unmarked) [Compound 9]	30 to 300	–
COc1cc(NC(=O)OCc2ccc3c(c2)C(=O)N(C2CCC(=O)NC2=O)C3)cnc1-c1ccccc1 (centres unmarked) [Compound 90]	< 30	DC50 (GSPT1; [3]): ≤ 30 nM
Cc1ccc(OC(F)(F)F)cc1NC(=O)OCc1ccc2c(c1)C(=O)N(C1CCC(=O)NC1=O)C2 (centres unmarked) [Compound 128]	> 300	–
CCc1nscc1NC(=O)OCc1ccc2c(c1)C(=O)N(C1CCC(=O)NC1=O)C2 (centres unmarked) [Compound 147]	> 300	–

Compound	DC50 (GSPT1; [2]) [nM]	also measured
O=C1CCC(N2Cc3ccc(COC(=O)Nc4cc(OCCN5CCOCC5)cc(OC(F)F)c4)cc3C2=O)C(=O)N1 (centres unmarked) [Compound 96]	< 30	DC50 (GSPT1; [3]): ≤ 30 nM
Cc1cc(Cl)c(NC(=O)OCc2ccc3c(c2)C(=O)N(C2CCC(=O)NC2=O)C3)cc1Cl (centres unmarked) [Compound 119]	> 300	–
O=C1CCC(N2Cc3ccc(COC(=O)Nc4cc(F)cc(Cl)c4)cc3C2=O)C(=O)N1 (centres unmarked) [Compound 12]	30 to 300	–
O=C1CCC(N2Cc3ccc(COC(=O)Nc4ccccc4)cc3C2=O)C(=O)N1 (centres unmarked) [Compound 138, (2-(2,6-dioxopiperidin-3-yl)-3-oxoisoindolin-5-yl)methyl phenylcarbamate]	> 300	–
Cc1cc(Cl)cc(NC(=O)OCc2ccc3c(c2)C(=O)N(C2CCC(=O)NC2=O)C3)c1 (centres unmarked) [Compound 144, (2-(2,6-dioxopiperidin-3-yl)-3-oxoisoindolin-5-yl)methyl (3-chloro-5-methylphenyl)carbamate]	30 to 300	–
Cc1c(F)cc(NC(=O)OCc2ccc3c(c2)C(=O)N(C2CCC(=O)NC2=O)C3)cc1F (centres unmarked) [Compound 127, (2-(2,6-dioxopiperidin-3-yl)-3-oxoisoindolin-5-yl)methyl (3,5-difluoro-4-methylphenyl)carbamate]	30 to 300	–
CCc1cc(NC(=O)OCc2ccc3c(c2)C(=O)N(C2CCC(=O)NC2=O)C3)cc(C)n1 (centres unmarked) [Compound 71]	30 to 300	–
O=C1CCC(N2Cc3ccc(COC(=O)NC4COC(c5ccccc5)OC4)cc3C2=O)C(=O)N1 (centres unmarked) [Compound 130]	> 300	–
CCOc1cc(NC(=O)OCc2ccc3c(c2)C(=O)N(C2CCC(=O)NC2=O)C3)ccc1C (centres unmarked) [Compound 33]	30 to 300	–
O=C1CCC(N2Cc3ccc(COC(=O)Nc4ccc5c(c4)OC(F)(F)O5)cc3C2=O)C(=O)N1 (centres unmarked) [Compound 79]	< 30	DC50 (GSPT1; [3]): ≤ 30 nM
CC(C)(C)c1ccc(NC(=O)OCc2ccc3c(c2)C(=O)N(C2CCC(=O)NC2=O)C3)nc1 (centres unmarked) [Compound 131, (2-(2,6-dioxopiperidin-3-yl)-3-oxoisoindolin-5-yl)methyl (5-(tert-butyl)pyridin-2-yl)carbamate]	30 to 300	–
Cc1cc(F)cc(NC(=O)OCc2ccc3c(c2)C(=O)N(C2CCC(=O)NC2=O)C3)c1 (centres unmarked) [Compound 146, (2-(2,6-dioxopiperidin-3-yl)-3-oxoisoindolin-5-yl)methyl (3-fluoro-5-methylphenyl) carbamate]	30 to 300	–
Cc1cc(F)c(NC(=O)OCc2ccc3c(c2)C(=O)N(C2CCC(=O)NC2=O)C3)cc1Cl (centres unmarked) [Compound 141, (2-(2,6-dioxopiperidin-3-yl)-3-oxoisoindolin-5-yl)methyl (5-chloro-2-fluoro-4-methylphenyl)carbamate]	30 to 300	–
CC(C)(C)c1ccc(NC(=O)OCc2ccc3c(c2)C(=O)N(C2CCC(=O)NC2=O)C3)c(F)c1 (centres unmarked) [Compound 142, (2-(2,6-dioxopiperidin-3-yl)-3-oxoisoindolin-5-yl)methyl (4-(tert-butyl)-2-fluorophenyl)carbamate]	30 to 300	–
Cc1cc(NC(=O)OCc2ccc3c(c2)C(=O)N(C2CCC(=O)NC2=O)C3)cc(C(C)(C)C)n1 (centres unmarked) [Compound 118]	< 30	DC50 (GSPT1; [3]): ≤ 30 nM
Cc1cc(NC(=O)OCc2ccc3c(c2)C(=O)N(C2CCC(=O)NC2=O)C3)cc(F)c1C (centres unmarked) [Compound 117]	30 to 300	–
O=C1CCC(N2Cc3ccc(COC(=O)Nc4cc(CN5CCOCC5)cc(OC(F)F)c4)cc3C2=O)C(=O)N1 (centres unmarked) [Compound 95]	< 30	DC50 (GSPT1; [3]): ≤ 30 nM
Cc1ccc(NC(=O)OCc2ccc3c(c2)C(=O)N(C2CCC(=O)NC2=O)C3)cc1F (centres unmarked) [Compound 133, (2-(2,6-dioxopiperidin-3-yl)-3-oxoisoindolin-5-yl)methyl (3-fluoro-4-methylphenyl)carbamate]	30 to 300	–

— patent publication US11912682B2, “Isoindolinone compounds” (Monte Rosa Therapeutics, Inc., priority 2021, dated 2024)
